Structures can show the parent of a compound that is named as a salt.
Test system: ISG reporter activity in THP1-Dual cell
Assay: ISG reporter assay
Assay type: cell-based
Details: Homo sapiens, compounds incubated with cells for 24 hours, QUANTI-Blue, absorbance at 655 nm
Description: [Worded in the source for another cell line; this cell line is reported under the same test.] THP1-Blue cells (cat. no. thp-isg) were purchased from InvivoGen (Sandiago, USA). Penicillin—streptomycin (cat. no. L0022-100), Fetal Bovine Serum (FBS) (cat. no. S1480-500) and Roswell Park Memorial Institute (RPMI) 1640 media (cat. L0498-500) were purchased from biowest (Nuaille, France). Zeocin (cat. no. ant-zn-OS) and Normocin (cat. no. ant-nr-1) were purchased from InvivoGen (Sandiago, USA). QUANTI-Blue™ (cat. no. rep-qbs) was purchased from InvivoGen. THP1-Blue cells were cultured in RPMI 1640 medium with 10% heat-inactivated FBS, 100 μg/ml Normocin, 100 μg/ml Zeocin and 100 U/ml-100 μg/ml penicillin-streptomycin. The cells were incubated at 37° C. in a humidified atmosphere of 5% CO2.
THP1-Blue cells were seeded at 5×10^4 cells/well (90 μl/well). 10 μl of compounds were added to the cells and incubated for 24 hours. 20 μl of cell culture supernatant was dispensed new 96-well plate (cat. no. 30096) with 180 μl of QUANTI-Blue™ solution and incubated for 15 minutes at 37° C. The absorbance was measured by Varioskan Lux (Thermofisher Scientific, USA) at 655 nm.

EC50 | Compound
< 50 nM | CCn1nc(C)cc1C(=O)Nc1nc2cc(C(N)=O)cc(OC)c2n1C/C=C/Cn1c(NC(=O)c2cc(C)nn2CC)nc2cc(C(N)=O)cc(OCC#CC3CCN(C(=O)OC(C)C)CC3)c21 [Example 5, isopropyl (E)-4-(3-((5-carbamoyl-1-(4-(5-carbamoyl-2-(1-ethyl-3-methyl-1H-pyrazole-5-carboxamido)-7-methoxy-1H-benzo[d]imidazol-1-yl)but-2-en-1-yl)-2-(1-ethyl-3-methyl-1H-pyrazole-5-carboxamido)-1H-benzo[d]imidazol-7-yl)oxy)prop-1-yn-1-yl)piperidine-1-carboxylate]
< 50 nM | CCn1nc(C)cc1C(=O)Nc1nc2cc(C(N)=O)cc(OC)c2n1C/C=C/Cn1c(NC(=O)c2cc(C)nn2CC)nc2cc(C(N)=O)cc(OCC#CC3CCN(C(=O)OC4CC4)CC3)c21 [Example 6, cyclopropyl (E)-4-(3-((5-carbamoyl-1-(4-(5-carbamoyl-2-(1-ethyl-3-methyl-1H-pyrazole-5-carboxamido)-7-methoxy-1H-benzo[d]imidazol-1-yl)but-2-en-1-yl)-2-(1-ethyl-3-methyl-1H-pyrazole-5-carboxamido)-1H-benzo[d]imidazol-7-yl)oxy)prop-1-yn-1-yl)piperidine-1-carboxylate]
< 50 nM | CCn1nc(C)cc1C(=O)Nc1nc2cc(C(N)=O)cc(OC)c2n1C/C=C/Cn1c(NC(=O)c2cc(C)nn2CC)nc2cc(C(N)=O)cc(OCC#CC3CCN(C(=O)OC4CCCC4)CC3)c21 [Example 7, cyclopentyl (E)-4-(3-((5-carbamoyl-1-(4-(5-carbamoyl-2-(1-ethyl-3-methyl-1H-pyrazole-5-carboxamido)-7-methoxy-1H-benzo[d]imidazol-1-yl)but-2-en-1-yl)-2-(1-ethyl-3-methyl-1H-pyrazole-5-carboxamido)-1H-benzo[d]imidazol-7-yl)oxy)prop-1-yn-1-yl)piperidine-1-carboxylate]
50 to 500 nM | CCn1nc(C)cc1C(=O)Nc1nc2cc(C(N)=O)cc(OC)c2n1C/C=C/Cn1c(NC(=O)c2cc(C)nn2CC)nc2cc(C(N)=O)cc(OCC#CC3CCN(C(=O)OC4CCNCC4)CC3)c21 [Example 9, piperidin-4-yl (E)-4-(3-((5-carbamoyl-1-(4-(5-carbamoyl-2-(1-ethyl-3-methyl-1H-pyrazole-5-carboxamido)-7-methoxy-1H-benzo[d]imidazol-1-yl)but-2-en-1-yl)-2-(1-ethyl-3-methyl-1H-pyrazole-5-carboxamido)-1H-benzo[d]imidazol-7-yl)oxy)prop-1-yn-1-yl)piperidine-1-carboxylate hydrochloride]

The remaining lines, values behind:

Compound | EC50
CCn1nc(C)cc1C(=O)Nc1nc2cc(C(=O)O)cc(OC)c2n1C/C=C/Cn1c(NC(=O)c2cc(C)nn2CC)nc2cc(C(N)=O)cc(OCC#CC3CCN(C(=O)OC(C)(C)C)CC3)c21 [Example 1, (E)-1-(4-(7-((3-(1-(tert-butoxycarbonyl)piperidin-4-yl)prop-2-yn-1-yl)oxy)-5-carbamoyl-2-(1-ethyl-3-methyl-1H-pyrazole-5-carboxamido)-1H-benzo[d]imidazol-1-yl)but-2-en-1-yl)-2-(1-ethyl-3-methyl-1H-pyrazole-5-carboxamido)-7-methoxy-1H-benzo[d]imidazole-5-carboxylic acid] | > 500 nM
CCn1nc(C)cc1C(=O)Nc1nc2cc(C(=O)NOC)cc(OC)c2n1C/C=C/Cn1c(NC(=O)c2cc(C)nn2CC)nc2cc(C(N)=O)cc(OCC#CC3CCN(C(=O)OC(C)(C)C)CC3)c21 [Example 2, tert-butyl (E)-4-(3-((5-carbamoyl-2-(1-ethyl-3-methyl-1H-pyrazole-5-carboxamido)-1-(4-(2-(1-ethyl-3-methyl-1H-pyrazole-5-carboxamido)-7-methoxy-5-(methoxycarbamoyl)-1H-benzo[d]imidazol-1-yl)but-2-en-1-yl)-1H-benzo[d]imidazol-7-yl)oxy)prop-1-yn-1-yl)piperidine-1-carboxylate] | > 500 nM
CCn1nc(C)cc1C(=O)Nc1nc2cc(C(N)=O)cc(OC)c2n1C/C=C/Cn1c(NC(=O)c2cc(C)nn2CC)nc2cc(C(N)=O)cc(OCC#CC3CCN(C(=O)OC(C)(C)C)CC3)c21 [Example 3, tert-butyl (E)-4-(3-((5-carbamoyl-1-(4-(5-carbamoyl-2-(1-ethyl-3-methyl-1H-pyrazole-5-carboxamido)-7-methoxy-1H-benzo[d]imidazol-1-yl)but-2-en-1-yl)-2-(1-ethyl-3-methyl-1H-pyrazole-5-carboxamido)-1H-benzo[d]imidazol-7-yl)oxy)prop-1-yn-1-yl)piperidine-1-carboxylate] | < 50 nM
CCn1nc(C)cc1C(=O)Nc1nc2cc(C(N)=O)cc(OC)c2n1C/C=C/Cn1c(NC(=O)c2cc(C)nn2CC)nc2cc(C(N)=O)cc(OCC#CC3CCNCC3)c21 [Example 4, (E)-1-(4-(5-carbamoyl-2-(1-ethyl-3-methyl-1H-pyrazole-5-carboxamido)-7-((3-(piperidin-4-yl)prop-2-yn-1-yl)oxy)-1H-benzo[d]imidazol-1-yl)but-2-en-1-yl)-2-(1-ethyl-3-methyl-1H-pyrazole-5-carboxamido)-7-methoxy-1H-benzo[d]imidazole-5-carboxamide hydrochloride] | 50 to 500 nM
CCn1nc(C)cc1C(=O)Nc1nc2cc(C(N)=O)cc(OC)c2n1C/C=C/Cn1c(NC(=O)c2cc(C)nn2CC)nc2cc(C(N)=O)cc(OCC#CC3CCN(C(=O)OC4CCN(C(=O)OC(C)(C)C)CC4)CC3)c21 [Example 8, 1-(tert-butoxycarbonyl)piperidin-4-yl (E)-4-(3-((5-carbamoyl-1-(4-(5-carbamoyl-2-(1-ethyl-3-methyl-1H-pyrazole-5-carboxamido)-7-methoxy-1H-benzo[d]imidazol-1-yl)but-2-en-1-yl)-2-(1-ethyl-3-methyl-1H-pyrazole-5-carboxamido)-1H-benzo[d]imidazol-7-yl)oxy)prop-1-yn-1-yl)piperidine-1-carboxylate] | < 50 nM
CCn1nc(C)cc1C(=O)Nc1nc2cc(C(N)=O)cc(OC)c2n1C/C=C/Cn1c(NC(=O)c2cc(C)nn2CC)nc2cc(C(N)=O)cc(OCC#CC3CCN(C(=O)OCCO)CC3)c21 [Example 10, 2-hydroxyethyl (E)-4-(3-((5-carbamoyl-1-(4-(5-carbamoyl-2-(1-ethyl-3-methyl-1H-pyrazole-5-carboxamido)-7-methoxy-1H-benzo[d]imidazol-1-yl)but-2-en-1-yl)-2-(1-ethyl-3-methyl-1H-pyrazole-5-carboxamido)-1H-benzo[d]imidazol-7-yl)oxy)prop-1-yn-1-yl)piperidine-1-carboxylate] | < 50 nM
CCn1nc(C)cc1C(=O)Nc1nc2cc(C(N)=O)cc(OC)c2n1C/C=C/Cn1c(NC(=O)c2cc(C)nn2CC)nc2cc(C(N)=O)cc(OCC#CC3CCN(C(=O)C(C)(C)C)CC3)c21 [Example 11, (E)-1-(4-(5-carbamoyl-2-(1-ethyl-3-methyl-1H-pyrazole-5-carboxamido)-7-((3-(1-pivaloylpiperidin-4-yl)prop-2-yn-1-yl)oxy)-1H-benzo[d]imidazol-1-yl)but-2-en-1-yl)-2-(1-ethyl-3-methyl-1H-pyrazole-5-carboxamido)-7-methoxy-1H-benzo[d]imidazole-5-carboxamide] | < 50 nM

— patent US20230219931A1, “FUSED HETEROARYL HYDROXAMATES AS STING AGONISTS” (BiSiChem Co., Ltd., priority 2022, published 2023)
